# According to the kinase profiling compilation of Christmann-Franck et al. (2016):
# Experiments:
# Experiment in all cases: radiometric filter-binding kinase assay, Kinase HotSpot
# Conditions in all cases: compound 0.5 µM; ATP 10 µM
# EPHA8 (human) = EPHA8 (human) (UniProt P29322)
# SGK3 (human) = SGK3 (human) (UniProt Q96BR1)
# DDR2 (human) = DDR2 (human) (UniProt Q16832)
# PIM1 (human) = PIM1 (human) (UniProt P11309)
# NUAK1 (human) = NUAK1 (human) (UniProt O60285)
# NEK11 (human) = NEK11 (human) (UniProt Q8NG66)
# CLK3 (human) = CLK3 (human) (UniProt P49761)
# HCK (human) = HCK (human) (UniProt P08631)
# DYRK3 (human) = DYRK3 (human) (UniProt O43781)
# TSSK2 (human) = TSSK2 (human) (UniProt Q96PF2)
# FGFR3 (human) = FGFR3 (human) (UniProt P22607)
# NTRK2 (human) = NTRK2 (human) (UniProt Q16620)
# MERTK (human) = MERTK (human) (UniProt Q12866)
# PIM3 (human) = PIM3 (human) (UniProt Q86V86)
# CSNK1G3 (human) = CSNK1G3 (human) (UniProt Q9Y6M4)
# Sequence of CSNK1G3 (human) (Q9Y6M4 whole entry, looked up): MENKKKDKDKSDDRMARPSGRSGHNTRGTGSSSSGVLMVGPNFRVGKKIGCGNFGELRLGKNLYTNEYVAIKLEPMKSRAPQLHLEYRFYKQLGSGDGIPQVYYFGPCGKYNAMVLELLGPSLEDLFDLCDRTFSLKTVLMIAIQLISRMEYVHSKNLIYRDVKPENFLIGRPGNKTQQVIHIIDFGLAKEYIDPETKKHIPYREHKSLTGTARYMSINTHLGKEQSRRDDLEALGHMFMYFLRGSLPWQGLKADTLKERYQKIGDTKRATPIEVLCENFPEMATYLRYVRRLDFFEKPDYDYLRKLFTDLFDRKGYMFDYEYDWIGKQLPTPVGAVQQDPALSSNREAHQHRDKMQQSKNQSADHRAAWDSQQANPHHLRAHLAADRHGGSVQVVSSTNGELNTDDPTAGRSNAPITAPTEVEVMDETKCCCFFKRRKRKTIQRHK
# NEK4 (human) = NEK4 (human) (UniProt P51957)
# MARK2 (human) = MARK2 (human) (UniProt Q7KZI7)
# PLK1 (human) = PLK1 (human) (UniProt P53350)
# Sequence of PLK1 (human) (P53350 whole entry, looked up): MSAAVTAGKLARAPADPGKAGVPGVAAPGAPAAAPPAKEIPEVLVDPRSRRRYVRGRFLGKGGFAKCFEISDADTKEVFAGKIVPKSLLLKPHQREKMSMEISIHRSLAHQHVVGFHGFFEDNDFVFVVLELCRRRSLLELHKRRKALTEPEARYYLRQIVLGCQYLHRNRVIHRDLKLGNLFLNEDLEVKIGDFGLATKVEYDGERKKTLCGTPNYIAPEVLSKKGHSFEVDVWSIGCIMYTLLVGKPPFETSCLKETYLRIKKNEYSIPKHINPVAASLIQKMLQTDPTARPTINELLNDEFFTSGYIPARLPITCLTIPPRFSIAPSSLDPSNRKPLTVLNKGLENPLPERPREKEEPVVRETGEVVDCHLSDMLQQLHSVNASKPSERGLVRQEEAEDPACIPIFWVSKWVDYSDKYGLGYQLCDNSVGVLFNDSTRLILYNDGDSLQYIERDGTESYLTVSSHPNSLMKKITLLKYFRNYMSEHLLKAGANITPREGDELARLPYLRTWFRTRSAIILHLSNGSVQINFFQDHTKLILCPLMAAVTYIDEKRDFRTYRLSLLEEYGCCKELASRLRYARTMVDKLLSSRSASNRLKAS
# MST1R (human) = MST1R (human) (UniProt Q04912)
# CSNK1E (human) = CSNK1E (human) (UniProt P49674)
# PRKX (human) = PRKX (human) (UniProt P51817)
# STK11 (human) = STK11 (human) (UniProt Q15831)
# TYRO3 (human) = TYRO3 (human) (UniProt Q06418)
# MAP3K3 (human) = MAP3K3 (human) (UniProt Q99759)
# PLK2 (human) = PLK2 (human) (UniProt Q9NYY3)
# EPHA1 (human) = EPHA1 (human) (UniProt P21709)
# BTK (human) = BTK (human) (UniProt Q06187)
# MAP4K2 (human) = MAP4K2 (human) (UniProt Q12851)
# Sequence of MAP4K2 (human) (Q12851 whole entry, looked up): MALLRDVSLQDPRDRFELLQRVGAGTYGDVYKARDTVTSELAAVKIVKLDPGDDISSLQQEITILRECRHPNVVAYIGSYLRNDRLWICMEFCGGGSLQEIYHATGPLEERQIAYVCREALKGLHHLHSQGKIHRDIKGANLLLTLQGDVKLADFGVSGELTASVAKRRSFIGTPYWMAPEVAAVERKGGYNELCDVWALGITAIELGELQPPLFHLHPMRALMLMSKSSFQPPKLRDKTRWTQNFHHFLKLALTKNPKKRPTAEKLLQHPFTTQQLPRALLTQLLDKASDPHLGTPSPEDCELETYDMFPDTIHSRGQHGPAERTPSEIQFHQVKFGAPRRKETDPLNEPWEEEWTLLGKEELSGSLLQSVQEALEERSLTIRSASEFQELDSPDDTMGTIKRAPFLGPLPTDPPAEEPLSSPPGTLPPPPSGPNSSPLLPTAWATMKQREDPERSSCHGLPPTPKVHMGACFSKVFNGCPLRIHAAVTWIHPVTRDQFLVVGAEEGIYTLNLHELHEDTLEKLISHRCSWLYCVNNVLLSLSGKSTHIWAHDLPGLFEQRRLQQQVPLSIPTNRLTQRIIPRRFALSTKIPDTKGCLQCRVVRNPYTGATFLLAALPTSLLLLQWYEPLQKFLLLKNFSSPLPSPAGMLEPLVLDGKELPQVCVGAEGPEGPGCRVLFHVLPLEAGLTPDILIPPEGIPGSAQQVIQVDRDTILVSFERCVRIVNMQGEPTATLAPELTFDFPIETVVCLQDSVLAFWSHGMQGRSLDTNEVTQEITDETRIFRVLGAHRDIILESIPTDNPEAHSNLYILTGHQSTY
# CSNK1D (human) = CSNK1D (human) (UniProt P48730)
# Sequence of CSNK1D (human) (P48730 whole entry, looked up): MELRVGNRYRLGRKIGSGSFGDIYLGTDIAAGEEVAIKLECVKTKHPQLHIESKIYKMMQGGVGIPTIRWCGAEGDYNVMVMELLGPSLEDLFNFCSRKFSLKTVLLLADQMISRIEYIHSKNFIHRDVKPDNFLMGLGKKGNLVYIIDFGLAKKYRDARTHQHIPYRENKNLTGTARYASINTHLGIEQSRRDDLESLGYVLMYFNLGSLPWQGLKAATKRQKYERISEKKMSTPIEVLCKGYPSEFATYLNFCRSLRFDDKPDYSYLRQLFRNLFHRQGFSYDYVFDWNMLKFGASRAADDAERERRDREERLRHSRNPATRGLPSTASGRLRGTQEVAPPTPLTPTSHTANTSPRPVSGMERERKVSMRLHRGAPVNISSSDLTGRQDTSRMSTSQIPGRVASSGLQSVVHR
# STK17A (human) = STK17A (human) (UniProt Q9UEE5)
# Sequence of STK17A (human) (Q9UEE5 whole entry, looked up): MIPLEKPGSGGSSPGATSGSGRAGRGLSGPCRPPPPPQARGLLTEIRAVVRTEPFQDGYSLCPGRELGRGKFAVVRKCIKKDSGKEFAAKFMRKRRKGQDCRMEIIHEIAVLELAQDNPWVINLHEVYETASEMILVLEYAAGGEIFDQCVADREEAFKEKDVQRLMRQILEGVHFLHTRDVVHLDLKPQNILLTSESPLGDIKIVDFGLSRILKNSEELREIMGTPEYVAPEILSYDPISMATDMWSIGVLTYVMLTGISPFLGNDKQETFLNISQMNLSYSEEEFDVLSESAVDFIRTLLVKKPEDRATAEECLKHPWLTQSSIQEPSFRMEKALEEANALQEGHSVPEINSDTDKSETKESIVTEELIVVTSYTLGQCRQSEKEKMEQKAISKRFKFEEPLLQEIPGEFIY
# CSNK1G1 (human) = CSNK1G1 (human) (UniProt Q9HCP0)
# MATK (human) = MATK (human) (UniProt P42679)
# GSK3A (human) = GSK3A (human) (UniProt P49840)
# Sequence of GSK3A (human) (P49840 whole entry, looked up): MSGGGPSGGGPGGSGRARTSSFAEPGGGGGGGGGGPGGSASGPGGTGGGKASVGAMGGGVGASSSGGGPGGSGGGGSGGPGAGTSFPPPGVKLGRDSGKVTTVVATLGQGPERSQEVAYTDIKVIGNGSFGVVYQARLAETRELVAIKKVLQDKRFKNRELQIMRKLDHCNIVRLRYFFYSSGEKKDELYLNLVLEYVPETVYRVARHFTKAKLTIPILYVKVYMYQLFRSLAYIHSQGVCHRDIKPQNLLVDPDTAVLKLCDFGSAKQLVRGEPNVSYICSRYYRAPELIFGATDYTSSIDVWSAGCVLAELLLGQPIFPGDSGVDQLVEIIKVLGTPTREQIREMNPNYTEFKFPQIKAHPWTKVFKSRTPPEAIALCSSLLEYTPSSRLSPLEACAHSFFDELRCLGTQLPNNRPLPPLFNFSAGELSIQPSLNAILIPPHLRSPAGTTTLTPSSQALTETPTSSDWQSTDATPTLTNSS
# FGFR2 (human) = FGFR2 (human) (UniProt P21802)
# EPHB3 (human) = EPHB3 (human) (UniProt P54753)
# WNK2 (human) = WNK2 (human) (UniProt Q9Y3S1)
# MUSK (human) = MUSK (human) (UniProt O15146)
# Sequence of MUSK (human) (O15146 whole entry, looked up): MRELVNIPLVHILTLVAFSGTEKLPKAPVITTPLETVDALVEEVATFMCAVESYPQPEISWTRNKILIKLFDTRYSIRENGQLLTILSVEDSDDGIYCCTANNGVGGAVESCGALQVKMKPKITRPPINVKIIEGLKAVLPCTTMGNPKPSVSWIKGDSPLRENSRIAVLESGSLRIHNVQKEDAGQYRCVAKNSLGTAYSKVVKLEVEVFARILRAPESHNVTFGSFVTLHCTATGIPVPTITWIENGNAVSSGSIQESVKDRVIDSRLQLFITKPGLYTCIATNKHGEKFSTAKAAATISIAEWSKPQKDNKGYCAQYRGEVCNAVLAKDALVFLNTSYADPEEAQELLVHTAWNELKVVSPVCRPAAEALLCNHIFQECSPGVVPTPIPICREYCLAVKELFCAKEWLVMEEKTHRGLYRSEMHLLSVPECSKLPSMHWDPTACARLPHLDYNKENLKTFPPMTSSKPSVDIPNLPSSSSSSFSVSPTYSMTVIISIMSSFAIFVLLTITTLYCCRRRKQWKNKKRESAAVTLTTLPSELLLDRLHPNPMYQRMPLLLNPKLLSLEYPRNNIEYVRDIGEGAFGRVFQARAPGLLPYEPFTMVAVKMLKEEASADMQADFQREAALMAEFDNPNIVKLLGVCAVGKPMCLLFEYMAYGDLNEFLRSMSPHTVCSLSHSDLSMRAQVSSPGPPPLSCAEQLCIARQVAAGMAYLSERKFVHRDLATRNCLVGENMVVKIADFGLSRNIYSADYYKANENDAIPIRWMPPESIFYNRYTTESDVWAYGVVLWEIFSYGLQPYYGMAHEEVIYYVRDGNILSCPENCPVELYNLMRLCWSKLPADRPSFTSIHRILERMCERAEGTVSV
# SIK2 (human) = SIK2 (human) (UniProt Q9H0K1)
# CAMK2A (human) = CAMK2A (human) (UniProt Q9UQM7)
# JAK2 JH1 JH2 (human) = JAK2 JH1 JH2 (human) (UniProt O60674)
# PHKG1 (human) = PHKG1 (human) (UniProt Q16816)
# ACVRL1 (human) = ACVRL1 (human) (UniProt P37023)
# Sequence of ACVRL1 (human) (P37023 whole entry, looked up): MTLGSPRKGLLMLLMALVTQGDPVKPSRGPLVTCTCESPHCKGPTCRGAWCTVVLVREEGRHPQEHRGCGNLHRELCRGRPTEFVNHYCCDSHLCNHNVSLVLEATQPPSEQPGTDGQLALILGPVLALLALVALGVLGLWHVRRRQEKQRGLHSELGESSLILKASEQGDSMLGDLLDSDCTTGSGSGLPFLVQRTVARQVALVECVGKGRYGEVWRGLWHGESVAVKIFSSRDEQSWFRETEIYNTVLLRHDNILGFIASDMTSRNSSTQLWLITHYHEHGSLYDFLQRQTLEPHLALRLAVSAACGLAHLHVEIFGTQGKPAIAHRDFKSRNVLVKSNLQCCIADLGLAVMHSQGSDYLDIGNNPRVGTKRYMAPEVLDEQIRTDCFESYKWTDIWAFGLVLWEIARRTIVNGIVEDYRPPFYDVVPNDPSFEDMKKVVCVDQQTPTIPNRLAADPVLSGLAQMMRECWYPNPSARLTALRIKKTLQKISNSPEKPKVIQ
# Sequence of PIM1 (human) (P11309 whole entry, looked up): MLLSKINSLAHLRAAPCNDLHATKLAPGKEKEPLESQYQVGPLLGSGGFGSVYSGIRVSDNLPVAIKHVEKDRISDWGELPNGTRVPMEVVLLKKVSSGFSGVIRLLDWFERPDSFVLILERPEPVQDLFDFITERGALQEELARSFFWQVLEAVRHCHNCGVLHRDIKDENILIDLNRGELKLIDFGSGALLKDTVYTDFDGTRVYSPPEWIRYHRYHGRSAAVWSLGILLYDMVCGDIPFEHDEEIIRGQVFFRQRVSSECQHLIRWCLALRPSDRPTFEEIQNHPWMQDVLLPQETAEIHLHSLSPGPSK
structure (smiles),measurement,setting,value
CNc1cc2c(Nc3cccc(Br)c3)ncnc2cn1,residual activity,EPHA8 (human),87.9%
same,residual activity,SGK3 (human),96.8%
same,residual activity,DDR2 (human),100%
same,residual activity,PIM1 (human),66.2%
same,residual activity,NUAK1 (human),97.5%
same,residual activity,NEK11 (human),106%
same,residual activity,CLK3 (human),87.6%
same,residual activity,HCK (human),84.5%
same,residual activity,DYRK3 (human),84.4%
same,residual activity,TSSK2 (human),87.2%
same,residual activity,FGFR3 (human),85.4%
same,residual activity,NTRK2 (human),94.3%
same,residual activity,MERTK (human),87.5%
same,residual activity,PIM3 (human),55.2%
same,residual activity,CSNK1G3 (human),86.3%
same,residual activity,NEK4 (human),94.9%
same,residual activity,MARK2 (human),90.9%
same,residual activity,PLK1 (human),93.5%
same,residual activity,MST1R (human),73.9%
same,residual activity,CSNK1E (human),84.8%
same,residual activity,PRKX (human),97.1%
same,residual activity,STK11 (human),98.3%
same,residual activity,TYRO3 (human),98.8%
same,residual activity,MAP3K3 (human),73.3%
same,residual activity,PLK2 (human),97.5%
same,residual activity,EPHA1 (human),103%
same,residual activity,BTK (human),94.7%
same,residual activity,MAP4K2 (human),74.8%
same,residual activity,CSNK1D (human),98.7%
same,residual activity,STK17A (human),98.4%
same,residual activity,CSNK1G1 (human),81.7%
same,residual activity,MATK (human),88%
same,residual activity,GSK3A (human),95.9%
same,residual activity,FGFR2 (human),96.3%
same,residual activity,EPHB3 (human),92.7%
same,residual activity,WNK2 (human),114%
same,residual activity,MUSK (human),81.3%
same,residual activity,SIK2 (human),98.3%
same,residual activity,CAMK2A (human),105%
same,residual activity,JAK2 JH1 JH2 (human),82.1%
same,residual activity,PHKG1 (human),91.4%
same,residual activity,ACVRL1 (human),90.6%
Cc1ccc(NC2=CC(=O)c3sc(C)nc3C2=O)cc1,residual activity,EPHA8 (human),94.1%
same,residual activity,SGK3 (human),95.2%
same,residual activity,DDR2 (human),95.6%
same,residual activity,PIM1 (human),96.8%
same,residual activity,NUAK1 (human),93%
same,residual activity,NEK11 (human),98.3%
same,residual activity,CLK3 (human),98.6%
same,residual activity,HCK (human),94.4%
same,residual activity,DYRK3 (human),96.2%
same,residual activity,TSSK2 (human),98.3%
same,residual activity,FGFR3 (human),86%
same,residual activity,NTRK2 (human),100%
same,residual activity,MERTK (human),80.5%
same,residual activity,PIM3 (human),108%
same,residual activity,CSNK1G3 (human),90.1%
same,residual activity,NEK4 (human),95.3%
same,residual activity,MARK2 (human),91.1%
same,residual activity,PLK1 (human),86.8%
same,residual activity,MST1R (human),88.9%
same,residual activity,CSNK1E (human),93.4%
same,residual activity,PRKX (human),96.8%
same,residual activity,STK11 (human),85.6%
same,residual activity,TYRO3 (human),95.3%
same,residual activity,MAP3K3 (human),120%
same,residual activity,PLK2 (human),95.1%
same,residual activity,EPHA1 (human),86.1%
same,residual activity,BTK (human),99.2%
same,residual activity,MAP4K2 (human),104%
same,residual activity,CSNK1D (human),101%
same,residual activity,STK17A (human),93.7%
same,residual activity,CSNK1G1 (human),102%
same,residual activity,MATK (human),88.3%
same,residual activity,GSK3A (human),102%
same,residual activity,FGFR2 (human),91%
same,residual activity,EPHB3 (human),89.2%
same,residual activity,WNK2 (human),97.7%
same,residual activity,MUSK (human),89.1%
same,residual activity,SIK2 (human),118%
same,residual activity,CAMK2A (human),101%
same,residual activity,JAK2 JH1 JH2 (human),99.1%
same,residual activity,PHKG1 (human),88.7%
same,residual activity,ACVRL1 (human),101%
